In paper PMC11827123 (Journal of medicinal chemistry, 2023):

Legend:
[1] = system: RBC; assay: RBC lysis in vitro assay; assay type: cell-based
[2] = system: mouse red blood cells (RBCs); assay: In vitro hemolysis assay, mouse RBCs; assay type: cell-based
[3] = FeSSIF solubility; assay type: physicochemical; settings: result in words
[4] = Microsomal; assay type: in vitro ADME, human; settings: result in words
[5] = Mouse pharmacokinetics, oral and intravenous dosing; settings: mice, PK study with oral and iv dosing
[6] = system: human red blood cells (RBCs); assay: In vitro hemolysis assay, human RBCs; assay type: cell-based
[7] = system: MOLT4 cells; assay: Quantitative MS degradation proteomics in MOLT4 cells; settings: 6 h treatment
[8] = system: HepG2 cell line; assay: LipidTOX Red phospholipidosis imaging assay; assay type: cell-based
[9] = system: HepG2 cell line; assay: HepG2 viability; assay type: cell-based
[10] = system: HiBiT-tagged v3 EML4-ALK (WT and clinically relevant mutations); assay: EML4-ALK HiBiT degradation assay, general / clinically relevant mutations; settings: result in words
[11] = target: HiBiT-tagged v3 EML4-ALK G1202R (Homo sapiens, UniProt Q9HC35+Q9UM73, G1202R); assay: EML4-ALK HiBiT degradation assay, G1202R; settings: Ba/F3, result in words
[12] = target: HiBiT-tagged v3 EML4-ALK wild-type (WT) (Homo sapiens, UniProt Q9HC35+Q9UM73); assay: EML4-ALK HiBiT degradation assay, WT; settings: result in words
HiBiT-tagged v3 EML4-ALK wild-type (WT), sequence (Q9UM73 1058-1620 limits assumed, one chain of several): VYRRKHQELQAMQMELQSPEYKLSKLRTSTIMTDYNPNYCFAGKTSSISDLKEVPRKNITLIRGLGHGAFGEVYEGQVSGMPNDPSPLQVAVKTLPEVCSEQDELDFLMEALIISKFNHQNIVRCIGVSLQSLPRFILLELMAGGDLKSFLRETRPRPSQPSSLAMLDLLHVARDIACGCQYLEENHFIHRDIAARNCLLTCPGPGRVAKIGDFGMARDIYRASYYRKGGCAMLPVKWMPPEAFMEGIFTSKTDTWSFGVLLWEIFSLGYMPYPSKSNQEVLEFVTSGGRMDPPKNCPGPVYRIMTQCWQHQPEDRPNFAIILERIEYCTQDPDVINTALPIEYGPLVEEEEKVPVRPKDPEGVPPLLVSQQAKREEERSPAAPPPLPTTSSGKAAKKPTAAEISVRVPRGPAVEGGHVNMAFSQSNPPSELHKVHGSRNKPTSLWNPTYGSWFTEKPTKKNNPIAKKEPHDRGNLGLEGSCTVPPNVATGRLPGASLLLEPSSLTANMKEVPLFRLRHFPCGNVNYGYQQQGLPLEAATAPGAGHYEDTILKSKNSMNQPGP

HiBiT-tagged v3 EML4-ALK G1202R, sequence (Q9UM73 1058-1620 G1202R limits assumed, one chain of several): as the sequence (Q9UM73 1058-1620 limits assumed, one chain of several) above, with G145R counted along it

Question: Which “RBC lysis in vitro” value [1] does the source give for COc1cc(CCNCCCCCC#Cc2cccc3c2C(=O)N(C2CCC(=O)NC2=O)C3=O)c(C)cc1Nc1ncc(Cl)c(Nc2ccccc2S(=O)(=O)C(C)C)n1 (centres unmarked) [CPD-198, 4-(7-((4-((5-Chloro-4-((2-(isopropylsulfonyl)-phenyl)amino)pyrimidin-2-yl)amino)-5-methoxy-2-methylphenethyl)amino)hept-1-yn-1-yl)-2-(2,6-dioxopiperidin-3-yl)isoindoline-1,3-dione] here?
Answer: caused RBC lysis

Question: Which in vitro hemolysis [2] does the source give for COc1cc(CCNCCCCCC#Cc2cccc3c2CN(C2CCC(=O)NC2=O)C3=O)c(C)cc1Nc1ncc(Cl)c(Nc2ccccc2S(=O)(=O)C(C)C)n1 (centres unmarked) [CPD-985, 3-(4-(7-((4-((5-Chloro-4-((2-(isopropylsulfonyl)-phenyl)amino)pyrimidin-2-yl)amino)-5-methoxy-2-methylphenethyl)amino)hept-1-yn-1-yl)-1-oxoisoindolin-2-yl)piperidine-2,6-dione] here?
Answer: confirmed

Question: And the “solubility in fed state simulated intestinal fluid (FeSSIF)” value [3]?
Answer: good solubility

Question: And the “metabolic / microsomal stability” value [4]?
Answer: slightly improved metabolic stability relative to CPD-198

Question: And the hemolysis in vivo [5]?
Answer: hemolysis was also observed

Question: And the in vitro hemolysis [6]?
Answer: confirmed

Question: Which “RBC lysis in vitro” value [1] does the source give for COc1cc(C2CCN(CCCCCC#Cc3cccc4c3CN(C3CCC(=O)NC3=O)C4=O)CC2)c(C)cc1Nc1ncc(Cl)c(Nc2ccccc2S(=O)(=O)C(C)C)n1 (centres unmarked) [CPD-1108, 3-(4-(7-(4-(4-((5-Chloro-4-((2-(isopropylsulfonyl)phenyl)amino)pyrimidin-2-yl)amino)-5-methoxy-2-methylphenyl)piperidin-1-yl)hept-1-yn-1-yl)-1-oxoisoindolin-2-yl)piperidine-2,6-dione] here?
Answer: weak positive

Question: With COc1cc(C2CCN(CCCC#Cc3cccc4c3CN(C3CCC(=O)NC3=O)C4=O)CC2)c(C)cc1Nc1ncc(Cl)c(Nc2ccccc2S(=O)(=O)C(C)C)n1 (centres unmarked) [CPD-1131] as the molecule, how does the “RBC lysis in vitro” value [1] read?
Answer: RBC lysis was avoided

Question: What about the “metabolic / microsomal stability” value [4] of the same molecule?
Answer: good microsomal stability

Question: And the “proteins degraded to any significant extent” value [7]?
Answer: five

Question: What does the source list for COc1cc(C2CCN(CC3CN(c4ccc5c(c4)C(=O)N(C4CCC(=O)NC4=O)C5=O)C3)CC2)c(C)cc1Nc1ncc(Cl)c(Nc2ccccc2S(=O)(=O)C(C)C)n1 (centres unmarked) [CPD-1224, 5-{3-[(4-{4-[(5-Chloro-4-{[2-(propane-2-sulfonyl)phenyl]amino}pyrimidin-2-yl)amino]-5-methoxy-2-methylphenyl}piperidin-1-yl)methyl]azetidin-1-yl}−2-(2,6-dioxopiperidin-3-yl)-2,3-dihydro-1H-isoindole-1,3-dione]?
Answer: RBC lysis in vitro [1]: did not possess RBC lysis; phospholipidosis (phospholipid accumulation) [8]: did not possess these effects; metabolic / microsomal stability [4]: improved metabolic stability relative to the isoindolinone congener CPD-1793; cytotoxicity [9]: did not possess these effects

Question: With COc1cc(C2CCN(CC3CN(c4ccc5c(c4)C(=O)N(C4CCC(=O)N(C)C4=O)C5=O)C3)CC2)c(C)cc1Nc1ncc(Cl)c(Nc2ccccc2S(=O)(=O)C(C)C)n1 (centres unmarked) [CPD-1224NC, 5-(3-((4-(4-((5-Chloro-4-((2-(isopropylsulfonyl)-phenyl)amino)pyrimidin-2-yl)amino)-5-methoxy-2-methylphenyl)piperidin-1-yl)methyl)azetidin-1-yl)-2-(1-methyl-2,6-dioxopiperidin-3-yl)isoindoline-1,3-dione] as the molecule, how does the “EML4-ALK degradation potency / efficacy (general, clinical mutations)” value [10] read?
Answer: retains weak degradation activity

Question: Which “metabolic / microsomal stability” value [4] does the source give for CCc1cc2c(cc1N1CCN(CC3CN(c4ccc5c(c4)C(=O)N(C4CCC(=O)NC4=O)C5=O)C3)CC1)C(C)(C)c1[nH]c3cc(C#N)ccc3c1C2=O (centres unmarked) [CPD-1403, 8-(4-((1-(2-(2,6-Dioxopiperidin-3-yl)-1,3-dioxoisoindolin-5-yl)azetidin-3-yl)methyl)piperazin-1-yl)-9-ethyl-6,6-dimethyl-11-oxo-6,11-dihydro-5H-benzo[b]carbazole-3-carbonitrile] here?
Answer: high microsomal stability

Question: Which “degradation activity for G1202R mutation” value [11] does the source give for Cc1cc(Nc2ncc(Cl)c(Nc3ccccc3S(=O)(=O)C(C)C)n2)c(OC(C)C)cc1C1CCN(CCOCCOCCNC(=O)CNc2cccc3c2C(=O)N(C2CCC(=O)NC2=O)C3=O)CC1 (centres unmarked) [TL13–112] here?
Answer: low degradation activity

Question: And the “shift between cellular ALK occupancy (NanoBRET) and degradation potency, WT” value [12]?
Answer: only a small shift

Question: Which “phospholipidosis (phospholipid accumulation)” value [8] does the source give for Cc1cc(Nc2ncc(Cl)c(Nc3ccccc3S(=O)(=O)C(C)C)n2)c(OC(C)C)cc1C1CCNCC1 [ceritinib, reference compound] here?
Answer: confirmed the phospholipidosis

Question: And the cytotoxicity [9]?
Answer: cytotoxicity
